One molecule from patent US5693628A, “11-benzaldoxime-estra-diene derivatives, methods for their production and pharmaceuticals containing these compounds” (priority 1994, dated 1997) can be followed below.

Assay [1] concerns H4-IIE rat hepatoma cell line (TAT induction). Put plainly: Antiglucocorticoid effect: inhibition of dexamethasone-induced TAT in rat hepatoma cells. It is filed as cell-based. The conditions noted are these: hepatomatous cells of rats; 10^-8 M dexamethasone. The source says:
FIG. 3. is a graph showing the antiglucocorticoid effect of J 867 (Example 1) in comparison to RU 486. The graph depicts the inhibition of TAT induction in a rat hepatoma cell line (the H4-IIE cell line) which were induced by 10^-8 M dexamethasone. The graph indicates the log molar antagonist concentration in the x-axis versus the maximum TAT induction as a percentage in the y-axis. The results for dexamethasone is shown as dashed lines (- - -), the IC50 is shown in solid line (----), RU 486 is shown as open boxes (.quadrature.), and J 867 is shown with closed boxes (.box-solid.).
FIG. 3 compares the antiglucocorticoid effect of J 867 and RU 486 on hepatomatous cells of rats using the TAT model.
In hepatomatous cells of rats, dexamethasone stimulates the tyrosine amino transferase enzyme (TAT). This effect is inhibited by antiglucocorticoid activity.
Antiglucocorticoid effect of J867 in hepatomatous cells of rats using the TAT model
The cell cultures were treated in DMEM under essentially the same conditions as in Example 14. The cells were spread over 24 well plates for the experiments. Substance was added to the confluent hepatomatous cells in 0.2% (v/v) ethanol for 16 hours. After the cells were carefully harvested using a scraper and a cell extract obtained using ultrasonic waves, TAT was determined according to Diamondstone.

In assay [2] the test system is early gravidity in the rat. Put plainly: Early abortive effect / inhibition of early gravidity in the rat. It is filed as in vivo. The conditions noted are these: for complete gravidity inhibition % / complete gravidity inhibition N*/N (females not pregnant/inseminated females): empty uteri. The method, then: Inhibition of early gravidity in the rat
Female rats are mated in the pro-oestrus. If semen is found in the vaginal smear on the next day, this day is counted as day 1 (=d1) of the gravidity. Treatment with the test substance or vehicle is applied on d5-d7, autopsy is carried out on d9. The substances are injected subcutaneously in 0.2 ml of vehicle (benzyl benzoate/castor oil 1+4).

The target of assay [3] is T1, glucocorticoid receptor (Rattus norvegicus, UniProt P06536).
T1 construct: thymus cytosol of the adrenalectomized rat; from tissue; host or cells: thymus (cytosol) of adrenalectomized rat
T1 sequence (P06536 1-795): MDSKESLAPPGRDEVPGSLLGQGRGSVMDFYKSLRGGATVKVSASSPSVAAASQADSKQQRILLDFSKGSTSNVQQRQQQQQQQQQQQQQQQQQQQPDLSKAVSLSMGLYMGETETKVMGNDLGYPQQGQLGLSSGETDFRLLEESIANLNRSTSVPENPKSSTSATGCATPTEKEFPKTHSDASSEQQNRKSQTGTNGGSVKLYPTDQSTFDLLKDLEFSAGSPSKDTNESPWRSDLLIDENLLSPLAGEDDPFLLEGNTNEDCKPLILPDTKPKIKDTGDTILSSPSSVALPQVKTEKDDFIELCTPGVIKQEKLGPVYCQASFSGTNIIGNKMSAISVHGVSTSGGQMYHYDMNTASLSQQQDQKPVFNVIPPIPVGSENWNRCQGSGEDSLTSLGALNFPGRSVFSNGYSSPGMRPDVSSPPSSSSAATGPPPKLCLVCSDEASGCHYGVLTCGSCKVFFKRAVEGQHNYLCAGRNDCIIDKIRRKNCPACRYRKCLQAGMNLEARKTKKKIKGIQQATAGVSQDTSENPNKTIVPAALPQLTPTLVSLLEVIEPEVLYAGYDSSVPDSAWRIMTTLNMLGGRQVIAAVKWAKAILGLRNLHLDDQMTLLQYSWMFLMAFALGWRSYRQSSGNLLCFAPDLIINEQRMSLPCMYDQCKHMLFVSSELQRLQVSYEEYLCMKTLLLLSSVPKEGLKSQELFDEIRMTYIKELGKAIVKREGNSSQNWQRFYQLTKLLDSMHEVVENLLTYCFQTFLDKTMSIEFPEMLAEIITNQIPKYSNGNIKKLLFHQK
The assay is described as follows: relative molar bonding affinity to glucocorticoid receptor (competitive bonding). Format: binding. The conditions noted are these: dexamethasone = 100%; thymus cytosol of adrenalectomized rat; 3H-dexamethasone, 20 nM; 18 h, 0-4° C. The method, then:
(§1) Measurement of bonding affinity for receptors
(§2) Receptor bonding affinity was determined by competitive bonding of a specifically binding ^3 H labelled hormone (tracer) and the compound to be tested to receptors in the cytosol from animal target organs. It was tried to obtain receptor saturation and a balanced reaction. The following incubation conditions were selected:
Glucocorticoid receptor: thymus cytosol of the adrenalectomized rat, thymi kept at -30° C., buffer: TED. Tracer: ^3 H-dexamethasone, 20 nM; reference substance: dexamethasone.
(§3) After an incubation period of 18 hours at 0°-4° C., bonded and free steroid was separated by mixing in active carbon/dextrane (1%/0.1%), centrifuging off and measuring the bonded ^3 H activity in the supernatant.
The IC50 for the compound to be tested and for the reference substance were determined from measurements in series of concentrations.

The target in assay [4] is T2, oestrogen receptor (Oryctolagus cuniculus, UniProt G1SML6).
T2 construct: uterine cytosol of the immature rabbit; from tissue; host or cells: uterus (cytosol) of immature rabbit
T2 sequence (G1SML6 1-598): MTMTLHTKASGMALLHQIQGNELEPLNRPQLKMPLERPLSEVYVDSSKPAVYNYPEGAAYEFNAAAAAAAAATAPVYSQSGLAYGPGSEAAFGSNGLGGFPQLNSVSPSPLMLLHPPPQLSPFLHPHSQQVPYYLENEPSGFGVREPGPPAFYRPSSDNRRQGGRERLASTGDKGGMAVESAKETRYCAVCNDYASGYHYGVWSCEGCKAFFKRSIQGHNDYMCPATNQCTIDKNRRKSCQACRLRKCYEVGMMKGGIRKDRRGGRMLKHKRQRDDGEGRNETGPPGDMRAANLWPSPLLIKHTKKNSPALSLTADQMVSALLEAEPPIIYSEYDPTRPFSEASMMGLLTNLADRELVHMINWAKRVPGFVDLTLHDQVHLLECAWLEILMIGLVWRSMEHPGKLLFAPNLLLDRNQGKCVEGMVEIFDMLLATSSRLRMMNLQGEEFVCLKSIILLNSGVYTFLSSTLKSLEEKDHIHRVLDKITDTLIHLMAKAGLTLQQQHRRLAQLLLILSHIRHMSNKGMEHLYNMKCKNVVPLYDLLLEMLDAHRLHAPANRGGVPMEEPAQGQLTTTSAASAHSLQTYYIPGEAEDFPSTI
The assay is described as follows: relative molar bonding affinity to oestrogen receptor (competitive bonding). Format: binding. The conditions noted are these: estradiol = 100%; uterine cytosol of immature rabbit; 3H-ethinyl estradiol, 3 nM; 18 h, 0-4° C. The method, then: as §1, §2
Oestrogen receptor: uterine cytosol of the immature rabbit, kept at -30° C. in TED buffer with 250 mM of saccharose. Tracer: ^3 H-ethinyl estradiol, 3 nM; reference substance: 17β-estradiol.
as §3
The IC50 for the compound to be tested and for the reference substance were determined from measurements in series of concentrations. The quotient of both values (×100%) is the relative molar bonding affinity.

Where [5] appears, read: 0.3 mg/animal/day s.c., 5th to 7th day of pregnancy.
Setting [6] is: 1.0 mg/animal/day s.c., 5th to 7th day of pregnancy.
Where [7] appears, read: 3.0 mg/animal/day s.c., 5th to 7th day of pregnancy.

Regarding `COC[C@]1(OC)CC[C@H]2[C@@H]3CCC4=CC(=O)CCC4=C3[C@@H](c3ccc(C=NO)cc3)C[C@@]21C` [Example 1, 11β-[4-(hydroximinomethyl)phenyl]-17β-methoxy-17α-methoxymethyl-estra-4,9-diene-3-on], the “antiglucocorticoid effect (TAT) compared with RU 486” value in assay [1] is “clearly weaker antiglucocorticoid effect than RU 486”. Further, the “complete gravidity inhibition %” value worked out at 0% in assay [2] (setting [5]), 100% in assay [2] (setting [6]) and 100% in assay [2] (setting [7]). The “complete gravidity inhibition N*/N (females not pregnant/inseminated females)” value is reported as 0/5 in assay [2] (setting [5]), 5/5 in assay [2] (setting [6]) and 5/5 in assay [2] (setting [7]). Besides, in assay [2] (s.c., 5th to 7th day of pregnancy, graphic determination), the “ED 50” value is on record as 0.6 mg/animal/day. For the same molecule, in assay [2] (s.c., d5-d7, autopsy d9, factor compared to RU 486), the “inhibition capability of nidation as compared to RU 486 (factor)” value came out at 3. Besides, the “relative molar bonding affinity (RBA) to glucocorticoid receptor” value in assay [3] worked out at 78%. Further, in assay [4], the “relative molar bonding affinity (RBA) to oestrogen rec.” value is recorded as below 0.1%.
